Assay [1] addresses T1, PGF synthase (PGFS) (Homo sapiens, UniProt P42330).
T1 construct: made in house
T1 sequence (P42330 1-323): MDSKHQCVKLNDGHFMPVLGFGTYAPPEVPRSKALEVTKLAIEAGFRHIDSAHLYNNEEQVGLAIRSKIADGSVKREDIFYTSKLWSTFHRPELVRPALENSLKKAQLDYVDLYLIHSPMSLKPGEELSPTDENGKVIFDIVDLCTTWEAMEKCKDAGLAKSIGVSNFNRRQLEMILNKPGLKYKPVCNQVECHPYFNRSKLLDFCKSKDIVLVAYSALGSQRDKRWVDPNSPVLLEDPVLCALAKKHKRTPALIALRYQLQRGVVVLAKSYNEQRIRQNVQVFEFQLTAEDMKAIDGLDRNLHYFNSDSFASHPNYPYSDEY
In words: Test on PGF synthase (spectrophotometric, 340 nm, 9,10-phenanthrenequinone/β-NADPH). It is filed as biochemical. Particulars: IC50fs; 37° C., pH 6.5 Tris buffer, 20 μM 9,10-phenanthrenequinone, 100 μM β-NADPH. How it is done: The enzyme PGFS is obtained as described in document FR-A-02/05067, at a concentration of 0.5 mg/mL, as a suspension in a suitable medium, and blocked at −80° C. For the purposes of the test, this suspension is thawed and stored in ice.
In parallel, a 100 mM, pH 6.5 Tris buffer containing 20 μM of 9,10-phenanthrenequinone* (P2896, Sigma-Aldrich, L'isle D'Abeau Chesne, BP 701, 38297, Saint Quentin Fallavier) and 100 μM of β-NADPH (N1630, Sigma-Aldrich, L'isle D'Abeau Chesne, BP 701, 38297, Saint Quentin Fallavier) is prepared in a brown flask (protected from light).
*A stock solution with a titre of 1 mM is prepared in absolute ethanol and brought to 40° C.; the flask is placed in an ultrasound cuvette to facilitate the dissolution of the product.
0.950 mL of this buffer (brought to 37° C. beforehand) is introduced into the cuvette of a spectrophotometer (Perkin-Elmer, Lambda 2) thermostatically maintained at 37° C., the measuring wavelength of which is set at 340 nm. 0.05 mL of enzymatic suspension at 37° C. is introduced into the cuvette concomitantly with the recording (corresponding to a reduction in the optical density at 340 nm). The maximum reaction rate is recorded. […]

The target of assay [2] is T2, 15-PGDH (Homo sapiens, UniProt P15428).
T2 construct: made in house
T2 sequence (P15428 1-266): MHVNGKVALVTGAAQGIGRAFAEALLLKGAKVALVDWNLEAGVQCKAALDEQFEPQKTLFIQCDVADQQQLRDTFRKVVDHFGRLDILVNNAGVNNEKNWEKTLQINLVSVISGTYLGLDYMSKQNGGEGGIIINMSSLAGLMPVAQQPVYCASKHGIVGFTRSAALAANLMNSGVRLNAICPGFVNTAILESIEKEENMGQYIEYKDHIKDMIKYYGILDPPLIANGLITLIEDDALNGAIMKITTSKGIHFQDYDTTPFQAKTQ
In words: Test on 15-PGDH (spectrophotometric, 340 nm, PGE2/β-NAD). It is filed as biochemical. Particulars: for Inhibition of 15-PGDH % inhibition at 50 μm: compound at 50 μm, pH 7.4. On the procedure:
The enzyme 15-PGDH is obtained as described in patent application FR 02/05067 filed in the name of L'Oréal, as a suspension in a medium adjusted to a concentration of 0.3 mg/mL and then blocked at −80° C. For the purposes of the test, this suspension is thawed and stored in ice.
In parallel, a 100 mM, pH 7.4 Tris buffer containing 0.1 mM of dithiothreitol (D5545, Sigma-Aldrich, L'isle D'Abeau Chesne, BP 701, 38297, Saint Quentin Fallavier), 1.5 mM of β-NAD (N6522, Sigma-Aldrich, L'isle D'Abeau Chesne, BP 701, 38297, Saint Quentin Fallavier), and 50 μM of prostaglandin E2 (P4172, Sigma-Aldrich, L'isle D'Abeau Chesne, BP 701, 38297, Saint Quentin Fallavier) is prepared.
0.965 ml of this buffer (brought to 37° C. beforehand) is introduced into the cuvette of a spectrophotometer (Perkin-Elmer, Lambda 2) thermostatically maintained at 37° C., the measuring wavelength of which is set at 340 nm. 0.035 mL of enzymatic suspension at 37° C. is introduced into the cuvette concomitantly with the recording (corresponding to an increase in the optical density at 340 nm). The maximum reaction rate is recorded.
The test values (containing the compounds (I)) are compared with the control value (without compound (I)); the results indicated represent the concentration at which the compound of formula (I) reduces the anzymatic activity of 15-PGDH by 50%, namely IC50dh.

pIC50: −log10 of the molar value. A value given as a limit tells only on which side of the number the result lay.

One may read the pIC50 as the negative decadic logarithm of the IC50, by convention in mol/L.

In the case of `O=C(CSc1nc2ccccc2s1)NC1CCCC1` [Compound 1], the pIC50 in assay [1] was not above 4.30; in assay [2] (IC50dh, 37° C., pH 7.4 Tris buffer, 50 μM prostaglandin E2, 1.5 mM β-NAD, read-out: Inhibition of 15-PGDH IC50), 5.30. In addition, the “Inhibition of 15-PGDH % inhibition at 50 μm” value in assay [2] (37° C.) was 89%. The IC50fs/IC50dh ratio entry in assay [2] (selectivity: PGF synthase IC50 over 15-PGDH IC50) is recorded as “greater than 10”.
For `CC(=O)c1ccc(C#N)c(SCC(=O)Nc2cc(Cl)cc(Cl)c2)n1` [Compound 2], the “Inhibition of 15-PGDH % inhibition at 50 μm” value in assay [2] (37° C.) was 30%.
In the case of `O=C(CSc1nnc2sc3ccccc3n12)Nc1ccc(Br)cc1` [Compound 3], the “Inhibition of 15-PGDH % inhibition at 50 μm” value in assay [2] (37° C.) came out at 26%.

The values above are taken from patent US20050169863A1, “2-Thioacetamide compositions for stimulating the growth of keratin fibers and/or for reducing loss thereof” (L'OREAL, priority 2003, published 2005).
